Results: patent US4720495A, “Benzo[ij]quinolizine-2-carboxylic acids useful for treating bacterial infection” (priority 1985, dated 1988)
Converted amounts (≈) assume the structure as drawn.

Legend:
[1] = system: Enterobacter cloacae 963; assay: minimal inhibitory concentration, in vitro antibacterial activity; type: cell-based; conditions: 37° C., 20 hours
Experimental: (§1) The in vitro antibacterial activities of typical examples of the present compounds [I] were evaluated in terms of the minimal inhibitory concentration defined as the lowest concentration of the compound preventing the bacterial growth. The Gram-positive bacteria used as test microorganisms included Bacillus subtilis, Staphylococcus aureus and Streptococcus faecalis, and the Gram-negative bacteria used as test microorganisms included Escherichia coli, Enterobacter cloacae, Klebsiella pneumoniae, Proteus vulgaris, Pseudomonas aeruginosa, Serratia marcescens and Salmonella enteritidis. The minimal inhibitory concentration (cultured at 37° C. for 20 hours) was determined according to the standard method prescribed by the Japan Society of Chemotherapy (CHEMOTHERAPY, Vol. 29, No. 1, p. 76, 1981). The following compounds were used as typical examples of the present compounds [I]. At the end of the chemical name of each compound, its tentative designation is given in Parentheses.
(§2) For purposes of comparison, the in vitro antibacterial activities of ofloxacin, OPC-7241 and compound α were evaluated according to the same method as described above and the test results thus obtained are also shown in Table 1.

[2] = system: Escherichia coli CI-304; assay: as above; type: cell-based; conditions: CI304, 37° C., 20 hours
Experimental: as §1, §2

[3] = system: Klebsiella pneumoniae PCI 602; assay: as above; type: cell-based; conditions: PCI602, 37° C., 20 hours
Experimental: as §1, §2

[4] = system: Proteus vulgaris ATCC 13315; assay: as above; type: cell-based; conditions: ATCC13315, 37° C., 20 hours
Experimental: as §1, §2

[5] = system: Salmonella enteritidis G14; assay: as above; type: cell-based; conditions: Salmonella enterica, 37° C., 20 hours
Experimental: as §1, §2

[6] = system: Serratia marcescens IAM 1184; assay: as above; type: cell-based; conditions: IAM1184, 37° C., 20 hours
Experimental: as §1, §2

[7] = system: Staphylococcus aureus FDA 209P JC-1; assay: as above; type: cell-based; conditions: FDA209P, 37° C., 20 hours
Experimental: as §1, §2

[8] = system: Bacillus subtilis ATCC 6633; assay: as above; type: cell-based; conditions: ATCC6633, 37° C., 20 hours
Experimental: as §1, §2

[9] = system: Escherichia coli NIHJ JC-2; assay: as above; type: cell-based; conditions: NIHJJC2, 37° C., 20 hours
Experimental: as §1, §2

[10] = system: Pseudomonas aeruginosa NCTC 10490; assay: as above; type: cell-based; conditions: NCTC10490, 37° C., 20 hours
Experimental: as §1, §2

[11] = system: Streptococcus faecalis AHU 1085; assay: as above; type: cell-based; conditions: Enterococcus faecalis, AHU1085, 37° C., 20 hours
Experimental: as §1, §2

[12] = enteral absorbability, serum concentration after oral administration to mice; type: in vivo; conditions: mouse, 50 mg/kg orally, fasted male ICR mice; for concentration at 0.5 h: 30 min.
Experimental: Using male ICR mice fasted overnight (weighing 20±1 g), the enteral absorbability of some typical examples of the present compounds [I] was tested. This test was carried out by administering 50 mg/kg of each test compound orally to mice and determining its serum concentration 30 minutes, 1 hour, 2 hours and 4 hours after administration. Five mice were used for each test point. At each test point, whole blood was collected from the mice by cardiac puncture and used to prepare serum samples. Concentrations of the test compounds in serum samples were determined by the paper disc method using Escherichia coli CI-304 as the test microorganism.
For purposes of comparison, the enteral absorbability of ofloxacin and OPC-7241 was tested in the same manner as described above and the results thus obtained are also shown in Table 2.

MIC [1] [mg/L] | MIC [2] [mg/L] | MIC [3] [mg/L] | MIC [4] [mg/L] | MIC [5] [mg/L] | MIC [6] [mg/L] | MIC [7] [mg/L] | MIC [8] [mg/L] | MIC [9] [mg/L] | MIC [10] [mg/L] | MIC [11] [mg/L] | concentration at 0.5 h [12] [µg/mL] | concentration at 1 h [12] [µg/mL] | concentration at 2 h [12] [µg/mL] | concentration at 4 h [12] [µg/mL] | Compound
0.39 (≈ 1.01 µM) | 0.2 (≈ 0.519 µM) | 0.2 (≈ 0.519 µM) | 0.1 (≈ 0.259 µM) | 0.78 (≈ 2.02 µM) | 1.56 (≈ 4.05 µM) | 0.78 (≈ 2.02 µM) |  |  |  |  |  |  |  |  | CC1CN(c2c(F)cc3c(=O)c(C(=O)O)cn4c3c2C=CC4C)CC(C)N1C (stereo not shown) [Compound 27, 9-Fluoro-5-methyl-8-(3,4,5-trimethyl-1-piperazinyl) -1-oxo-1H, 5H-benzo[ij]quinolizine-2-carboxylic acid]
0.39 | 0.2 | 0.1 | 0.2 | 0.78 | 1.56 | 0.39 | 0.2 | 0.39 | 3.13 | 0.78 |  |  |  |  | CC1CN(c2c(F)cc3c(=O)c(C(=O)O)cn4c3c2C(=O)CC4C)CC(C)N1C.Cl.O (stereo not shown) [Compound 39, 9-Fluoro-5-methyl-8-(3,4,5-trimethyl-1-piperazinyl) -6,7-dihydro-1,7-dioxo-1H, 5H-benzo[ij]quinolizine-2-carboxylic acid hydrochloride monohydrate]
0.2 (≈ 0.535 µM) | 0.2 (≈ 0.535 µM) | 0.1 (≈ 0.267 µM) | 0.1 (≈ 0.267 µM) | 1.56 (≈ 4.17 µM) | 1.56 (≈ 4.17 µM) | 0.2 (≈ 0.535 µM) | 0.2 (≈ 0.535 µM) | 0.39 (≈ 1.04 µM) | 1.56 (≈ 4.17 µM) | 0.78 (≈ 2.09 µM) |  |  |  |  | CC1C=Cc2c(N3CCN(C)CC3)c(Cl)cc3c(=O)c(C(=O)O)cn1c23 (stereo not shown) [Compound 24, 9-Chloro-5-methyl-8-(4-methyl-1-piperazinyl)-1-oxo-1H,5H-benzo[ij]quinolizine-2-carboxylic acid]
0.39 (≈ 1.01 µM) | 0.1 (≈ 0.258 µM) | 0.1 (≈ 0.258 µM) |  | 0.78 (≈ 2.01 µM) |  | 0.39 (≈ 1.01 µM) | 0.39 (≈ 1.01 µM) | 0.39 (≈ 1.01 µM) | 3.13 (≈ 8.08 µM) | 3.13 (≈ 8.08 µM) | 15 | 11.7 | 6.7 | 4.3 | CC1CC(=O)c2c(N3CCNC(C)(C)C3)c(F)cc3c(=O)c(C(=O)O)cn1c23 (stereo not shown) [Compound 15, 9-Fluoro-5-methyl-8-(3,3-dimethyl-1-piperazinyl) -6,7-dihydro-1,7-dioxo-1H, 5H-benzo[ij]quinolizine-2-carboxylic acid]
0.2 (≈ 0.538 µM) | 0.2 (≈ 0.538 µM) | 0.1 (≈ 0.269 µM) | 0.1 (≈ 0.269 µM) | 1.56 (≈ 4.2 µM) | 1.56 (≈ 4.2 µM) | 0.2 (≈ 0.538 µM) | 0.2 (≈ 0.538 µM) | 0.39 (≈ 1.05 µM) | 1.56 (≈ 4.2 µM) |  | 15.5 | 14.9 | 9.3 | 5.4 | CC1CN(c2c(F)cc3c(=O)c(C(=O)O)cn4c3c2C=CC4C)CCN1C (stereo not shown) [Compound 25, 9-Fluoro-5-methyl-8-(3,4-dimethyl-1-piperazinyl) -1-oxo-1H, 5H-benzo[ij]quinolizine-2-carboxylic acid]
0.78 (≈ 2.01 µM) | 0.39 (≈ 1.01 µM) | 0.2 (≈ 0.516 µM) |  |  |  |  | 0.39 (≈ 1.01 µM) | 0.78 (≈ 2.01 µM) |  |  |  |  |  |  | CCC1CC(=O)c2c(N3CCN(C)CC3)c(F)cc3c(=O)c(C(=O)O)cn1c23 (stereo not shown) [Compound 6, 9-Fluoro-5-ethyl-8-(4-methyl-1-piperazinyl) -6,7-dihydro-1,7-dioxo-1H, 5H-benzo[ij]quinolizine-2-carboxylic acid]
0.2 (≈ 0.513 µM) | 0.1 (≈ 0.257 µM) | 0.1 (≈ 0.257 µM) | 0.1 (≈ 0.257 µM) | 0.78 (≈ 2 µM) | 3.13 (≈ 8.03 µM) | 0.39 (≈ 1 µM) | 0.1 (≈ 0.257 µM) | 0.1 (≈ 0.257 µM) | 0.78 (≈ 2 µM) | 1.56 (≈ 4 µM) |  |  |  |  | CC1CC(=O)c2c(N3CCN(C)CC3)c(Cl)cc3c(=O)c(C(=O)O)cn1c23 (stereo not shown) [Compound 7, 9-Chloro-5-methyl-8-(4-methyl-1-piperazinyl)-6,7-dihydro-1,7-dioxo-1H, 5H-benzo[ij]quinolizine-2-carboxylic acid]
0.78 (≈ 1.87 µM) | 0.2 (≈ 0.479 µM) | 0.1 (≈ 0.239 µM) |  |  |  |  |  | 0.78 (≈ 1.87 µM) |  |  |  |  |  |  | CC1CN(c2c(Cl)cc3c(=O)c(C(=O)O)cn4c3c2C(=O)CC4C)CC(C)N1C (stereo not shown) [Compound 18, 9-Chloro-5-methyl-8-(3,4,5-trimethyl-1-piperazinyl) -6,7-dihydro-1,7-dioxo-1H, 5H-benzo[ij]quinolizine-2-carboxylic acid]
0.78 (≈ 2.1 µM) | 0.2 (≈ 0.538 µM) | 0.2 (≈ 0.538 µM) |  |  |  |  |  | 0.39 (≈ 1.05 µM) |  |  |  |  |  |  | CCC1C=Cc2c(N3CCNC(C)C3)c(F)cc3c(=O)c(C(=O)O)cn1c23 (stereo not shown) [Compound 32, 9-Fluoro-5-ethyl-8-(3-methyl-1-piperazinyl) -1-oxo-1H, 5H-benzo[ij]quinolizine-2-carboxylic acid]
 | 0.39 (≈ 0.967 µM) | 0.1 (≈ 0.248 µM) |  |  |  |  |  |  |  |  |  |  |  |  | CC1CC(=O)c2c(N3CCN(CCO)CC3)c(F)cc3c(=O)c(C(=O)O)cn1c23 (stereo not shown) [Compound 12, 9-Fluoro-5-methyl-8-[4-(2-hydroxyethyl) -1-piperazinyl]-6,7-dihydro-1,7-dioxo-1H, 5H-benzo[ij]quinolizine-2-carboxylic acid]
0.39 (≈ 1.05 µM) | 0.2 (≈ 0.538 µM) | 0.2 (≈ 0.538 µM) | 0.1 (≈ 0.269 µM) | 1.56 (≈ 4.2 µM) |  |  |  | 0.39 (≈ 1.05 µM) | 1.56 (≈ 4.2 µM) |  |  |  |  |  | CC1C=Cc2c(N3CCNC(C)(C)C3)c(F)cc3c(=O)c(C(=O)O)cn1c23 (stereo not shown) [Compound 26, 9-Fluoro-5-methyl-8-(3,3-dimethyl-1-piperazinyl) -1-oxo-1H, 5H-benzo[ij]quinolizine-2-carboxylic acid]
0.78 (≈ 1.94 µM) | 0.2 (≈ 0.498 µM) | 0.1 (≈ 0.249 µM) |  |  |  | 0.78 (≈ 1.94 µM) | 0.39 (≈ 0.972 µM) | 0.39 (≈ 0.972 µM) | 1.56 (≈ 3.89 µM) | 3.13 (≈ 7.8 µM) |  |  |  |  | CCCN1CCN(c2c(F)cc3c(=O)c(C(=O)O)cn4c3c2C(=O)CC4C)CC1 (stereo not shown) [Compound 8, 9-Fluoro-5-methyl-8-(4-n-propyl-1-piperazinyl)-6,7-dihydro-1,7-dioxo-1H, 5H-benzo[ij]quinolizine-2-carboxylic acid]

Compound | MIC [1] [mg/L] | MIC [2] [mg/L] | MIC [3] [mg/L] | MIC [4] [mg/L] | MIC [5] [mg/L] | MIC [6] [mg/L] | MIC [7] [mg/L] | MIC [8] [mg/L] | MIC [9] [mg/L] | MIC [10] [mg/L] | MIC [11] [mg/L] | concentration at 0.5 h [12] [µg/mL] | concentration at 1 h [12] [µg/mL] | concentration at 2 h [12] [µg/mL] | concentration at 4 h [12] [µg/mL]
CC1CC(=O)c2c(N3CCNCC3)c(F)cc3c(=O)c(C(=O)O)cn1c23 (stereo not shown) [Compound 1, 9-Fluoro-5-methyl-8-(1-piperazinyl)-6,7-dihydro-1,7-dioxo-1H,5H-benzo[ij]quinolizine-2-carboxylic acid] | 0.78 (≈ 2.17 µM) | 0.1 (≈ 0.278 µM) | 0.1 (≈ 0.278 µM) | 0.2 (≈ 0.557 µM) | 0.39 (≈ 1.09 µM) | 3.13 (≈ 8.71 µM) | 0.2 (≈ 0.557 µM) | 0.39 (≈ 1.09 µM) | 0.39 (≈ 1.09 µM) | 1.56 (≈ 4.34 µM) | 1.56 (≈ 4.34 µM) |  |  |  | 
CC1C=Cc2c(N3CCNCC3)c(Cl)cc3c(=O)c(C(=O)O)cn1c23 (stereo not shown) [Compound 22, 9-Chloro-5-methyl-8-(1-piperazinyl) -1-oxo-1H, 5H-benzo[ij]quinolizine-2-carboxylic acid] | 0.2 (≈ 0.556 µM) | 0.1 (≈ 0.278 µM) | 0.1 (≈ 0.278 µM) | 0.1 (≈ 0.278 µM) | 0.78 (≈ 2.17 µM) | 0.78 (≈ 2.17 µM) | 0.2 (≈ 0.556 µM) | 0.1 (≈ 0.278 µM) | 0.2 (≈ 0.556 µM) | 0.78 (≈ 2.17 µM) | 0.78 (≈ 2.17 µM) |  |  |  | 
CC1C=Cc2c(N3CCNCC3)c(F)cc3c(=O)c(C(=O)O)cn1c23 (stereo not shown) [Compound 20, 9-Fluoro-5-methyl-8-(1-piperazinyl) -1-oxo-1H, 5H-benzo[ij]quinolizine-2-carboxylic acid] | 0.78 (≈ 2.27 µM) | 0.2 (≈ 0.582 µM) | 0.2 (≈ 0.582 µM) | 0.2 (≈ 0.582 µM) | 0.78 (≈ 2.27 µM) | 3.13 (≈ 9.12 µM) | 0.78 (≈ 2.27 µM) |  | 0.39 (≈ 1.14 µM) | 3.13 (≈ 9.12 µM) |  |  |  |  | 
CC1CC(=O)c2c(N3CCNCC3)c(Cl)cc3c(=O)c(C(=O)O)cn1c23 (stereo not shown) [Compound 2, 9-Chloro-5-methyl-8-(1-piperazinyl)-6,7-dihydro-1,7-dioxo-1H,5H-benzo[ij]quinolizine-2-carboxylic acid] | 0.78 (≈ 2.08 µM) | 0.2 (≈ 0.532 µM) | 0.1 (≈ 0.266 µM) | 0.1 (≈ 0.266 µM) |  |  | 0.39 (≈ 1.04 µM) | 0.39 (≈ 1.04 µM) | 0.39 (≈ 1.04 µM) | 0.78 (≈ 2.08 µM) |  |  |  |  | 
